We go through 2 compounds from patent publication US9604975B2, “Indolyl-pyridone derivatives having checkpoint kinase 1 inhibitory activity” (Vernalis (R&D) Ltd., priority 2009, dated 2017).

One experiment has as its target T1, CHK1 (Homo sapiens, UniProt O14757).
T1 construct: His; purchased Invitrogen
T1 sequence (O14757 1-476): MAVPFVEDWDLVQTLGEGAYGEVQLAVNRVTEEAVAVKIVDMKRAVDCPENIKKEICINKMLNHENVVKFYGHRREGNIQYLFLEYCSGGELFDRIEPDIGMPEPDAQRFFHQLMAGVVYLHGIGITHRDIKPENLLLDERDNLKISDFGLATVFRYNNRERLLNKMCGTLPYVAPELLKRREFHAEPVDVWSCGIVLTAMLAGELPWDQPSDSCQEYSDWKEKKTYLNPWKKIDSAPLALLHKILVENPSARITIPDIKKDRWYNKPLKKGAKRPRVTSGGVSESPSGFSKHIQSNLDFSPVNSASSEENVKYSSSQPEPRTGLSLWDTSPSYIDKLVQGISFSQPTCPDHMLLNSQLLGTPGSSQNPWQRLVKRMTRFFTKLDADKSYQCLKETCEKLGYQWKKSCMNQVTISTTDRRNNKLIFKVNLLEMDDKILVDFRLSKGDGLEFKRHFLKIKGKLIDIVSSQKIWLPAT
As to the kind of experiment: CHK1 Enzyme Assay (phosphorylation of Chktide peptide, 33P-ATP filter assay). In kind it is biochemical. To be noted: 12.5 nM His-CHK1, 0.01 mM ATP, 40 minutes at 30° C.; read-out: CHK1 Enzyme Activity (IC50 range). In short, it runs like this: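 His-CHK1 (12.5 nM) phosphorylating 14.8 μM Chktide with 0.01 mM ATP plus 33P-γ-ATP, in 50 mM Hepes-NaOH pH 7.5 with 0.1 mg/mL BSA. Incubated with inhibitor for 40 min at 30 °C. Stopped with phosphoric acid; phosphopeptide captured on filter and counted by scintillation.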

In a further experiment the test system is HT29 cells. As to the kind of experiment: CHK1 Cellular Assay - Gemcitabine EC50 Assay. In kind it is cell-based. To be noted: HT29 cells, in the presence of gemcitabine at 10 nM, 72 hours, SRB staining; read-out: CHK1 Cellular Activity (EC50 range). The protocol: The gemcitabine EC50 assay was developed as a rapid method for screening CHK1 inhibitors to determine their relative cell activity. This assay utilises a feature of the effect of CHK1 inhibitors on gemcitabine toxicity. In the absence of a CHK1 inhibitor, gemcitabine acts predominantly as an anti-metbolite and therefore induces very little cell death, even at high concentrations. This can be as high as 70-80% survival at concentrations in excess of 1 μM. However, in the presence of a CHK1 inhibitor, the mechanism of action of gemcitabine switches to a more classical cytotoxic mode of action. For example, the fraction of cells surviving can be reduced to around 30% and below. Concentrations of gemcitabine can be selected that in the absence of a CHK1 inhibitor, have no effect on cell survival but in the presence of a CHK1 inhibitor are highly cytotoxic. 10000 HT29 cells were plated per well of a 96 well plate and allowed to attach at 37° C. in a 5% CO2 humidified incubator for 18 hours. CHK1 inhibitors were then titrated in the presence of 10, 15 and 20 nM gemcitabine for 72 hours and the EC50 determined by staining with sulforhodamine B (SRB) and determining the absorbance at 540 nm.
On the technique in general: The SRB assay estimates cell density from bound dye.

Each structure is given as a SMILES string.

Regarding `CC(C)(COc1ccc2[nH]c(-c3cc(NC(=O)c4cnn(Cc5ccccc5)c4)c[nH]c3=O)cc2c1)CN1CCCCC1` [Example 185, 1-Benzyl-1H-pyrazole-4-carboxylic acid {5-[5-(2,2-dimethyl-3-piperidin-1-yl-propoxy)-1H-indol-2-yl]-6-oxo-1,6-dihydro-pyridin-3-yl}-amide], the concentration for half-maximal inhibition (IC50) (as a rule, the concentration needed to halve the response being measured) on CHK1 is below 0.1 µM. Further, in the experiment with HT29 cells, the EC50 (usually the concentration needed to bring the measured effect to its halfway point) is below 0.1 µM.
As for `CCN(CC)CC1(COc2ccc3[nH]c(-c4cc(NC(=O)c5cnn(Cc6ccccc6)c5)c[nH]c4=O)cc3c2)CC1` [Example 186, 1-Benzyl-1H-pyrazole-4-carboxylic acid {5-[5-(1-diethylaminomethyl-cyclopropylmethoxy)-1H-indol-2-yl]-6-oxo-1,6-dihydro-pyridin-3-yl}-amide], the IC50 at CHK1 was below 0.1 µM. In addition, in the experiment on HT29 cells, the EC50 is below 0.1 µM.
